Ten molecules from patent US9453062B2, “Glucose dependent insulinotropic polypeptide analogs, pharmaceutical compositions and use thereof” (Beijing Hanmi Pharmaceutical Co., Ltd., priority 2011, dated 2016) can be followed below.

For test [1], the target named is T1, hGLP-1R (Homo sapiens, UniProt P43220).
T1 construct: expressed in transfected cells; host or cells: CHO
Briefly: hGLP-1R-mediated cAMP induction assay in CHO cell line.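 Further: CHO cells expressing human GLP-1R, treated 30 min at 37 °C, intracellular cAMP measured by competitive fluorescent immunoassay and converted via a cAMP standard curve.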 It counts as cell-based.
Excerpt: (§1) The cAMP in the sample or standard competes with horseradish peroxidase (HRP)-labeled cAMP conjugate for binding sites on the anti-cAMP antibodies. In the absence of cAMP, most of the HRP-cAMP conjugate is bound to the antibody. Increasing concentrations of cAMP competitively decrease the amount of bound conjugate, thus decreasing measured HRP activity.
(§2) Assay kit: CatchPoint™ Cyclic-AMP Fluorescent Assay Kit (Molecular Devices, Product # R8088)
Cell lines: CHO hGLP1R, CHO hGIPR
(§3) Cell seeding: CHO hGLP1R or CHO hGIPR cells: 10,000 cells/well/100 uL at 37° C. 5% CO2 overnight.
(§4) Gently aspirate off media and wash the cells with KRBG Buffer, 100 uL/well.
(§5) Incubate the plate for 10 min at room temperature. Then add the KRBG buffer with 3× final concentration of the tested samples (5-foled series diluted from 5,000 nM), 50 uL/well. Incubate the plate at 37° C. 5% CO2 for 30 min.
(§6) Add 50 uL of Lysis buffer to each well and put the plate on a shaker for 10 min.
(§7) Place 40 uL of samples and analyze in appropriate wells. And test the cAMP concentration in each sample by following the manufacture's instruction.
(§8) Detect the fluorescence signal at Ex: 490 nm and Em: 530 nm. Transfer the FI signal to cAMP concentration by the cAMP standard curve. The Dose-response curve and EC50 were obtained by logistic fitting of Origin 8.

Test [2] deals with T2, hGIPR (Homo sapiens, UniProt P48546).
T2 construct: expressed in transfected cells; host or cells: CHO
T2 sequence (P48546 22-466): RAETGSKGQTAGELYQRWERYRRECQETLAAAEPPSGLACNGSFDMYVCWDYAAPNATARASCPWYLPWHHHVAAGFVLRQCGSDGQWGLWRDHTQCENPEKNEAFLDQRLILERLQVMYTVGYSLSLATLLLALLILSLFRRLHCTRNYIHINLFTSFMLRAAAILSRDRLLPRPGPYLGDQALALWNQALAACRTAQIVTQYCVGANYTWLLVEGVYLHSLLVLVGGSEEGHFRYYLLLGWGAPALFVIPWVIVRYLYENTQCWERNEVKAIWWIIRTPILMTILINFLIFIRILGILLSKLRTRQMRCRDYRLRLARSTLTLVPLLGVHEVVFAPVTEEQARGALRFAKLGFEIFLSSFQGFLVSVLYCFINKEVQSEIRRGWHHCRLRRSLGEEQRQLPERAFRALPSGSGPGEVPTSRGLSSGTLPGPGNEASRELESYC
Briefly: hGIPR-mediated cAMP induction assay in CHO cell line. The test is classed as cell-based. The note with it: for GIP Receptor Relative Potency: against native GIP.
Excerpt: as §1, §2
Cell lines: CHO hGLP1R, CHO hGIPR
as §3, §4, §5, §6, §7, §8

Where two headings read alike, the source gives them in different places. Where a SMILES comes first, the peptide text is derived from it. Where no end group is shown, it is not given here. [ ]: non-standard residue; d: D form. Phe(4-NO2) = N[C@@H](Cc1ccc([N+](=O)[O-])cc1)C(=O)O; Met(O) = CS(=O)CC[C@H](N)C(=O)O; Nle = CCCC[C@H](N)C(=O)O; Aib = CC(C)(N)C(=O)O

T1 sequence (P43220 24-463): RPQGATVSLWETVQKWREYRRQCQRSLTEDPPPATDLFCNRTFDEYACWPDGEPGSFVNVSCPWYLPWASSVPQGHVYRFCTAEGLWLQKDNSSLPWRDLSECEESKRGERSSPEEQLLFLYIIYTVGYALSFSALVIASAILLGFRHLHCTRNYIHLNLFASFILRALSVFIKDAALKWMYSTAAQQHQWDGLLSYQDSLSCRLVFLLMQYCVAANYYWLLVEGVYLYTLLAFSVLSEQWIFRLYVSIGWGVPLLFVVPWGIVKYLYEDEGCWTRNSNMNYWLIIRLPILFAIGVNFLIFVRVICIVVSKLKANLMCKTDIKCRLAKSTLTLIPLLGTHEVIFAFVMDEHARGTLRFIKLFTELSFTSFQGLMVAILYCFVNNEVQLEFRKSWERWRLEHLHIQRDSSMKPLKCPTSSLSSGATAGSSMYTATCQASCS

Regarding `CC[C@H](C)[C@H](NC(=O)[C@H](CO)NC(=O)[C@H](Cc1ccc(O)cc1)NC(=O)[C@H](CC(=O)O)NC(=O)[C@H](CO)NC(=O)[C@@H](NC(=O)[C@H](Cc1ccccc1)NC(=O)[C@@H](NC(=O)CNC(=O)[C@H](CCC(=O)O)NC(=O)C(C)(C)NC(=O)[C@@H](N)Cc1ccc(O)cc1)[C@@H](C)O)[C@@H](C)O)C(=O)N[C@@H](Cc1ccc([N+](=O)[O-])cc1)C(=O)N[C@@H](CC[S+](C)[O-])C(=O)N[C@@H](CCC(=O)O)C(=O)N[C@@H](CCCCN)C(=O)N[C@H](C(=O)N[C@@H](Cc1c[nH]cn1)C(=O)N[C@@H](CCC(N)=O)C(=O)N[C@@H](CCC(N)=O)C(=O)N[C@@H](CC(=O)O)C(=O)N[C@@H](Cc1ccccc1)C(=O)N[C@H](C(=O)N[C@@H](CC(N)=O)C(=O)N[C@@H](Cc1c[nH]c2ccccc12)C(=O)N[C@@H](CC(C)C)C(=O)N[C@@H](CC(C)C)C(=O)N[C@@H](C)C(=O)N[C@@H](CCC(N)=O)C(N)=O)C(C)C)[C@@H](C)CC` (stereo partly shown) [Compound 005] (H-Y[Aib]EGTFTSDYSI[Phe(4-NO2)][Met(O)]EKIHQQDFVNWLLAQ-NH2), the EC50 – broadly, the concentration that produces a half-maximal response – in test [1] was more than 2000 nM.
As for “Tyr-Ala-Glu-Gly-Thr-Phe-Ile-Ser-Asp-Tyr-Ser-Ile-Ala-Met-Asp-Lys-Ile-His-Gln-Gln-Asp-Phe-Val-Asn-Trp-Leu-Leu-Ala-Gln(NH2) (YAEGTFISDYSIAMDKIHQQDFVNWLLAQ-NH2; listed as Homo sapiens) [GIP (1-29), initial scaffold, reference compound]”, in test [2] (cAMP induction, liraglutide up to 1 μM), the “GIPR activation in vitro, in words” value is on record as “equivalent GIPR activation in vitro to that of the full-length GIP (1-42)”.
“Tyr-Aib-Glu-Gly-Thr-Phe-Thr-Ser-Asp-Tyr-Ser-Ile-Tyr-Met-Glu-Lys-Ile-His-Gln-Gln-Asp-Phe-Val-Asn-Trp-Leu-Leu-Ala-Gln(NH2) (Y[Aib]EGTFTSDYSIYMEKIHQQDFVNWLLAQ-NH2) [Analog 003]”: the “GLP-1R activation (GLP-1 activity) against native GLP-1” value in test [1] was approximately 0.2%.
The molecule `CCCC[C@H](NC(=O)[C@H](Cc1ccc(O)cc1)NC(=O)[C@@H](NC(=O)[C@H](CO)NC(=O)[C@H](Cc1ccc(O)cc1)NC(=O)[C@H](CC(=O)O)NC(=O)[C@H](CO)NC(=O)[C@@H](NC(=O)[C@H](Cc1ccccc1)NC(=O)[C@@H](NC(=O)CNC(=O)[C@H](CCC(=O)O)NC(=O)C(C)(C)NC(=O)[C@@H](N)Cc1ccc(O)cc1)[C@@H](C)O)[C@@H](C)O)[C@@H](C)CC)C(=O)N[C@@H](CCC(=O)O)C(=O)N[C@@H](CCCCN)C(=O)N[C@@H](CCC(=O)O)C(=O)N[C@@H](C)C(=O)N[C@@H](CCC(N)=O)C(=O)N[C@@H](CCC(N)=O)C(=O)N[C@@H](CC(=O)O)C(=O)N[C@@H](Cc1ccccc1)C(=O)N[C@H](C(=O)N[C@@H](CC(N)=O)C(=O)N[C@@H](Cc1c[nH]c2ccccc12)C(=O)N[C@@H](CC(C)C)C(=O)N[C@@H](CC(C)C)C(=O)N[C@@H](C)C(=O)N[C@@H](CCC(N)=O)C(N)=O)C(C)C` [Compound 020] (H-Y[Aib]EGTFTSDYSIY[Nle]EKEAQQDFVNWLLAQ-NH2; N-terminus assumed) returned an EC50 in test [2] of 0.27 nM. The “GIP Receptor Relative Potency” value in test [2] (Table 3) came out at 51.8.
`CCCC[C@H](NC(=O)[C@H](Cc1ccc(O)cc1)NC(=O)[C@@H](NC(=O)[C@H](CO)NC(=O)[C@H](Cc1ccc(O)cc1)NC(=O)[C@H](CC(=O)O)NC(=O)[C@H](CO)NC(=O)[C@@H](NC(=O)[C@H](Cc1ccccc1)NC(=O)[C@@H](NC(=O)CNC(=O)[C@H](CCC(=O)O)NC(=O)C(C)(C)NC(=O)[C@@H](N)Cc1ccc(O)cc1)[C@@H](C)O)[C@@H](C)O)[C@@H](C)CC)C(=O)N[C@@H](CCC(=O)O)C(=O)N[C@@H](CCCCN)C(=O)N[C@H](C(=O)N[C@@H](Cc1c[nH]cn1)C(=O)N[C@@H](CCC(N)=O)C(=O)N[C@@H](CCC(N)=O)C(=O)N[C@@H](CC(=O)O)C(=O)N[C@@H](Cc1ccccc1)C(=O)N[C@H](C(=O)N[C@@H](CC(N)=O)C(=O)N[C@@H](Cc1c[nH]c2ccccc12)C(=O)N[C@@H](CC(C)C)C(=O)N[C@H](C(=O)N[C@@H](CCCNC(=N)N)C(=O)N[C@@H](CCC(N)=O)C(N)=O)C(C)C)C(C)C)[C@@H](C)CC` [Compound 021] (H-Y[Aib]EGTFTSDYSIY[Nle]EKIHQQDFVNWLVRQ-NH2; N-terminus assumed): the “GIP Receptor Relative Potency” value in test [2] (Table 3) amounted to 21.7.
The same measure, in the same setting: under `CC[C@H](C)[C@H](NC(=O)[C@H](CO)NC(=O)[C@H](Cc1ccc(O)cc1)NC(=O)[C@H](CC(=O)O)NC(=O)[C@H](CO)NC(=O)[C@@H](NC(=O)[C@H](Cc1ccccc1)NC(=O)[C@@H](NC(=O)CNC(=O)[C@H](CCC(=O)O)NC(=O)C(C)(C)NC(=O)[C@@H](N)Cc1ccc(O)cc1)[C@@H](C)O)[C@@H](C)O)C(=O)N[C@@H](Cc1ccc(O)cc1)C(=O)N[C@@H](CCSC)C(=O)N[C@@H](CCC(=O)O)C(=O)N[C@@H](CCCCN)C(=O)N[C@H](C(=O)N[C@@H](Cc1c[nH]cn1)C(=O)N[C@@H](CCC(N)=O)C(=O)N[C@@H](CCC(N)=O)C(=O)N[C@@H](CC(=O)O)C(=O)N[C@@H](Cc1ccccc1)C(=O)N[C@H](C(=O)N[C@@H](CC(N)=O)C(=O)N[C@@H](Cc1c[nH]c2ccccc12)C(=O)N[C@@H](CC(C)C)C(=O)N[C@@H](CC(C)C)C(=O)N[C@@H](C)C(=O)N[C@@H](CCC(N)=O)C(N)=O)C(C)C)[C@@H](C)CC` [Compound 003] (H-Y[Aib]EGTFTSDYSIYMEKIHQQDFVNWLLAQ-NH2; N-terminus assumed) stands 77.7.
For the molecule “Tyr-Aib-Glu-Gly-Thr-Phe-Thr-Ser-Asp-Tyr-Ser-Ile-Tyr-Nle-Glu-Lys-Glu-Ala-Gln-Gln-Asp-Phe-Val-Asn-Trp-Leu-Leu-Ala-Gln(NH2) (Y[Aib]EGTFTSDYSIY[Nle]EKEAQQDFVNWLLAQ-NH2) [Analog 020]”, the “GLP-1R activation (GLP-1 activity) against native GLP-1” value in test [1] is “less than 1%”.
In test [2] (Table 3, CHO hGIPR cells), `CC[C@H](C)[C@H](NC(=O)[C@H](Cc1ccccc1)NC(=O)[C@H](CCC(=O)O)NC(=O)[C@H](CCC(=O)O)NC(=O)[C@@H](NC(=O)[C@H](C)NC(=O)[C@H](CCC(=O)O)NC(=O)[C@H](CCCCN)NC(=O)[C@H](CCC(=O)O)NC(=O)[C@H](CCSC)NC(=O)[C@H](Cc1ccc(O)cc1)NC(=O)[C@@H](NC(=O)[C@H](CO)NC(=O)[C@H](Cc1ccc(O)cc1)NC(=O)[C@H](CC(=O)O)NC(=O)[C@H](CO)NC(=O)[C@@H](NC(=O)[C@H](Cc1ccccc1)NC(=O)[C@@H](NC(=O)CNC(=O)[C@H](CCC(=O)O)NC(=O)C(C)(C)NC(=O)[C@@H](N)Cc1ccc(O)cc1)[C@@H](C)O)[C@@H](C)O)[C@@H](C)CC)C(C)C)C(=O)N[C@@H](C)C(=O)N[C@@H](Cc1c[nH]c2ccccc12)C(=O)N[C@@H](CC(C)C)C(=O)N[C@H](C(=O)N[C@@H](CCCCN)C(=O)NCC(N)=O)C(C)C` [Compound 053-1] (H-Y[Aib]EGTFTSDYSIYMEKEAVEEFIAWLVKG-NH2; N-terminus assumed) showed an EC50 of 0.5 nM. Moreover, the “GIP Receptor Relative Potency” value in test [2] (Table 3) was determined as 34.
Molecule `CCCC[C@H](NC(=O)[C@H](C)NC(=O)[C@@H](NC(=O)[C@H](CO)NC(=O)[C@H](Cc1ccc(O)cc1)NC(=O)[C@H](CC(=O)O)NC(=O)[C@H](CO)NC(=O)[C@@H](NC(=O)[C@H](Cc1ccccc1)NC(=O)[C@@H](NC(=O)CNC(=O)[C@H](CCC(=O)O)NC(=O)C(C)(C)NC(=O)[C@@H](N)Cc1ccc(O)cc1)[C@@H](C)O)[C@@H](C)CC)[C@@H](C)CC)C(=O)N[C@@H](CCC(=O)O)C(=O)N[C@@H](CCCCN)C(=O)N[C@H](C(=O)N[C@@H](Cc1c[nH]cn1)C(=O)N[C@@H](CCC(N)=O)C(=O)N[C@@H](CCC(N)=O)C(=O)N[C@@H](CC(=O)O)C(=O)N[C@@H](Cc1ccccc1)C(=O)N[C@H](C(=O)N[C@@H](CC(N)=O)C(=O)N[C@@H](Cc1c[nH]c2ccccc12)C(=O)N[C@@H](CC(C)C)C(=O)N[C@@H](CC(C)C)C(=O)N[C@@H](C)C(=O)N[C@@H](CCC(N)=O)C(N)=O)C(C)C)[C@@H](C)CC` [Compound 010] (H-Y[Aib]EGTFISDYSIA[Nle]EKIHQQDFVNWLLAQ-NH2; N-terminus assumed) showed an EC50 in test [1] of more than 2000 nM.
As to `CC[C@H](C)[C@H](NC(=O)[C@H](Cc1ccccc1)NC(=O)[C@H](CCC(=O)O)NC(=O)[C@H](CCCCN)NC(=O)[C@@H](NC(=O)[C@H](C)NC(=O)[C@H](CCC(=O)O)NC(=O)[C@H](CCCCN)NC(=O)[C@H](CCC(=O)O)NC(=O)[C@H](CCSC)NC(=O)[C@H](Cc1ccc(O)cc1)NC(=O)[C@@H](NC(=O)[C@H](CO)NC(=O)[C@H](Cc1ccc(O)cc1)NC(=O)[C@H](CC(=O)O)NC(=O)[C@H](CO)NC(=O)[C@@H](NC(=O)[C@H](Cc1ccccc1)NC(=O)[C@@H](NC(=O)CNC(=O)[C@H](CCC(=O)O)NC(=O)C(C)(C)NC(=O)[C@@H](N)Cc1ccc(O)cc1)[C@@H](C)O)[C@@H](C)O)[C@@H](C)CC)C(C)C)C(=O)N[C@@H](C)C(=O)N[C@@H](Cc1c[nH]c2ccccc12)C(=O)N[C@@H](CC(C)C)C(=O)N[C@H](C(=O)N[C@@H](CCCCN)C(=O)NCC(N)=O)C(C)C` [Compound 057] (H-Y[Aib]EGTFTSDYSIYMEKEAVKEFIAWLVKG-NH2; N-terminus assumed), in test [2] (Table 3, CHO hGIPR cells), the response was half-maximal at 0.57 nM (EC50). Besides, the “GIP Receptor Relative Potency” value in test [2] (Table 3) worked out at 36.8.
